From ChEMBL document CHEMBL1137230, “Structure-based exploration of cyclic dipeptide chitinase inhibitors” (2004)

Experiments:
[1] = system: Saccharomyces cerevisiae; test: Cell aggregates after mild sonication of compound with Saccharomyces cerevisiae strains as measure of chitinase inhibitory activity; format: functional
[2] = system: Saccharomyces cerevisiae; test: Cell aggregates after incubation of compound with Saccharomyces cerevisiae strains as measure of chitinase inhibitory activity; format: functional

Compound | Cell aggregates [1] | Cell aggregates [2]
O=C1N[C@@H](Cc2ccc(O)cc2)C(=O)N2CCC[C@@H]12 | 33.9 | 77.5
O=C1N[C@@H](Cc2cnc[nH]2)C(=O)N2CCC[C@@H]12 | 32.7 | 90
O=C1NCC(=O)N2CCC[C@@H]12 [CYCLO(PROLYLGLYCYL)] | 33.2 | 75.7
